Experimental data from US12325710B2, “Substituted 1,2,3,4,5,6-hexahydroazepino[4,5-b]indoles for treating brain disorders” (priority 2019, dated 2025).
“Also recorded” adds a separate entry of the source.

Key:
human 5-HT2A receptors = human 5-HT2A receptors (Homo sapiens, UniProt P28223); assay: 5-HT2A Gq-mediated calcium flux functional assay (human); type: cell-based
Protocol: (§1) Serotonin and Opioid Receptor Functional Assays. Functional assay screens at 5-HT and opioid receptors were performed in parallel using the same compound dilutions and 384-well format high-throughput assay platforms. Assays assessed activity at all human isoforms of the receptors, except where noted for the mouse 5-HT2A receptor. Receptor constructs in pcDNA vectors were generated from the Presto-Tango GPCR library with minor modifications. All compounds were serially diluted in drug buffer (HBSS, 20 mM HEPES, pH 7.4 supplemented with 0.1% bovine serum albumin and 0.01% ascorbic acid) and dispensed into 384-well assay plates using a FLIPR^TETRA (Molecular Devices). Every plate included a positive control such as 5-HT (for all 5-HT receptors), DADLE (DOR), salvinorin A (KOR), and DAMGO (MOR). For measurements of 5-HT2A, 5-HT2B, and 5-HT2C Gq-mediated calcium flux function, HEK Flp-In 293 T-Rex stable cell lines (Invitrogen) were loaded with Fluo-4 dye for one hour, stimulated with compounds and read for baseline (0-10 seconds) and peak fold-over-basal fluorescence (5 minutes) at 25° C. on the FLIPR^TETRA. For measurement of 5-HT6 and 5-HT7a functional assays, Gs-mediated cAMP accumulation was detected using the split-luciferase GloSensor assay in HEKT cells measuring luminescence on a Microbeta Trilux (Perkin Elmer) with a 15 min drug incubation at 25° C. […]

C57BL/6J mice = assay: Head-twitch response (HTR) assay; conditions: intraperitoneal; fumarate salts; 5-MeO-DMT 10 mg/kg as positive control
[1] = system: opioid receptors (MOR, KOR, DOR); assay: Opioid receptor functional assays (Gi/o-mediated cAMP inhibition); type: cell-based, human
Protocol: as §1

5-HT2B receptors = 5-HT2B receptors (Homo sapiens, UniProt P41595); assay: 5-HT2B Gq-mediated calcium flux functional assay; type: cell-based
Sequence of 5-HT2B receptors (P41595 whole entry, canonical isoform): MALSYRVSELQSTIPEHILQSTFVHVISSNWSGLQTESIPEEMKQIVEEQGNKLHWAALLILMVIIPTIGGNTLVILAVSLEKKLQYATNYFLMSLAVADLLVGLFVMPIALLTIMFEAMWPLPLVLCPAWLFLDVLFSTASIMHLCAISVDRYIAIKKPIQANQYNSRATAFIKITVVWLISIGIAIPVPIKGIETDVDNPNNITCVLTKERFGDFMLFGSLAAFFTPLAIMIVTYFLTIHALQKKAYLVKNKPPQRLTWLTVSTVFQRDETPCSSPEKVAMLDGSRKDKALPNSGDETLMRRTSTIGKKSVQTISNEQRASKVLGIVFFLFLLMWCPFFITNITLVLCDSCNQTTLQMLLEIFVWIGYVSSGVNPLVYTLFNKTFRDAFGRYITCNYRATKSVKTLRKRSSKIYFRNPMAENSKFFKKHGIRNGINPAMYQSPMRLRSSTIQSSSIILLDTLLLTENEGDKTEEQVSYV
Protocol: Serotonin and Opioid Receptor Functional Assays. Functional assay screens at 5-HT and opioid receptors were performed in parallel using the same compound dilutions and 384-well format high-throughput assay platforms. Assays assessed activity at all human isoforms of the receptors, except where noted for the mouse 5-HT2A receptor. Receptor constructs in pcDNA vectors were generated from the Presto-Tango GPCR library with minor modifications. All compounds were serially diluted in drug buffer (HBSS, 20 mM HEPES, pH 7.4 supplemented with 0.1% bovine serum albumin and 0.01% ascorbic acid) and dispensed into 384-well assay plates using a FLIPR^TETRA (Molecular Devices). Every plate included a positive control such as 5-HT (for all 5-HT receptors), DADLE (DOR), salvinorin A (KOR), and DAMGO (MOR). For measurements of 5-HT2A, 5-HT2B, and 5-HT2C Gq-mediated calcium flux function, HEK Flp-In 293 T-Rex stable cell lines (Invitrogen) were loaded with Fluo-4 dye for one hour, stimulated with compounds and read for baseline (0-10 seconds) and peak fold-over-basal fluorescence (5 minutes) at 25° C. on the FLIPR^TETRA. For measurement of 5-HT6 and 5-HT7a functional assays, Gs-mediated cAMP accumulation was detected using the split-luciferase GloSensor assay in HEKT cells measuring luminescence on a Microbeta Trilux (Perkin Elmer) with a 15 min drug incubation at 25° C. For 5-HT1A, 5-HT1B, 5-HT1F, MOR, KOR, and DOR functional assays, Gi/o-mediated cAMP inhibition was measured using the split-luciferase GloSensor assay in HEKT cells, conducted similarly as above, but in combination with either 0.3 μM isoproterenol (5-HT1A, 5-HT1B, 5-HT1F) or 1 μM forskolin (MOR, KOR, and DOR) to stimulate endogenous cAMP accumulation. For measurement of 5-HT1D, 5-HT1E, 5-HT4, and 5-HT5A functional assays, β-arrestin2 recruitment was measured by the Tango assay utilizing HTLA cells expressing TEV fused-β-arrestin2, as described previously with minor modifications. […]

5-HT2C = biological target: T1, 5-HT2C (Homo sapiens, UniProt P28335); assay: 5-HT2C Gq-mediated calcium flux functional assay; type: cell-based
T1 sequence (P28335 33-458): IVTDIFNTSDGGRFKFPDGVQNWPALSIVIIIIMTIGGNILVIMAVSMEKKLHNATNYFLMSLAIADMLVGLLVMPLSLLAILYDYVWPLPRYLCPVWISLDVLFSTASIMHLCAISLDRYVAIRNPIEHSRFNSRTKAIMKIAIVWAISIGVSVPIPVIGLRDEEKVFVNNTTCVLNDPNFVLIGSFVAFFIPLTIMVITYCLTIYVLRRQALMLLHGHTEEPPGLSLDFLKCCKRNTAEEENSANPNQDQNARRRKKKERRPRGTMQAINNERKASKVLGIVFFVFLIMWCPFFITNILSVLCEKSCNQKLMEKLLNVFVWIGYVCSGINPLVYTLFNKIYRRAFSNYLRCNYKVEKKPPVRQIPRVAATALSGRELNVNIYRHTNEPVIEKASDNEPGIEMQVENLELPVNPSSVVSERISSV
Protocol: as §1

[2] = biological target: T2, hERG channels expressed in HEK293 cells (Homo sapiens, UniProt Q12809); type: cell-based; conditions: relative to ibogaine
T2 construct: expressed in transfected cells
T2 sequence (Q12809 whole entry): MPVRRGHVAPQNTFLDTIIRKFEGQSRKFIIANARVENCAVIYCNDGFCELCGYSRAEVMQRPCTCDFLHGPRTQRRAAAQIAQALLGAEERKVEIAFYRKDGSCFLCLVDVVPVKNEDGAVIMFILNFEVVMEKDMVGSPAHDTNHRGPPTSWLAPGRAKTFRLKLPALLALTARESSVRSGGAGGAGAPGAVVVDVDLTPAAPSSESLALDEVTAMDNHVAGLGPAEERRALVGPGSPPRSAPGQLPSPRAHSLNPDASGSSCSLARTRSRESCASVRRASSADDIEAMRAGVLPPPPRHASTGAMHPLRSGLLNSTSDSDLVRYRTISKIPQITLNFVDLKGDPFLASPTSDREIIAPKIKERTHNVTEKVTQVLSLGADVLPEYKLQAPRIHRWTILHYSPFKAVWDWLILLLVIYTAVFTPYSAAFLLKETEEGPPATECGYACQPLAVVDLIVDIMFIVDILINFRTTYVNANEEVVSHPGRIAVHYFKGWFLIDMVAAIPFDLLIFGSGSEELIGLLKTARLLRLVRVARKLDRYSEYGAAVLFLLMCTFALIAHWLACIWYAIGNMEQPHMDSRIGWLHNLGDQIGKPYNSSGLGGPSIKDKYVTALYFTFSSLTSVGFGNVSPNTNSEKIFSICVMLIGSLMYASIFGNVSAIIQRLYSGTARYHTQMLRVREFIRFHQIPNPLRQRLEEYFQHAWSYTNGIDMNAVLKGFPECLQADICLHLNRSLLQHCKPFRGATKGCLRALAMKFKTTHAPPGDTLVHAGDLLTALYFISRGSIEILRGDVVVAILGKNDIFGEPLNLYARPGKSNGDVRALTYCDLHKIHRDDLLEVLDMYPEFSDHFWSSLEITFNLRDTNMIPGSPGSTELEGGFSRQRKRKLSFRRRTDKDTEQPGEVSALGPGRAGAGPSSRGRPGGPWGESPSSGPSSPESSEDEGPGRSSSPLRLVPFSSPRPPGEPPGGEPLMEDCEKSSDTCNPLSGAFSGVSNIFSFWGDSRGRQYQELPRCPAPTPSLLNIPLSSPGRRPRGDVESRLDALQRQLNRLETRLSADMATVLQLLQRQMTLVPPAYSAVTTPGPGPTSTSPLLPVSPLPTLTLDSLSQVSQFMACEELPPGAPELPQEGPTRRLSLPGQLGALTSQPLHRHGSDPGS
Protocol: hERG Inhibition Studies. All experiments were conducted manually using an EPC-10 amplifier (HEKA, Lambrecht/Pfalz, Germany) at room temperature in the whole-cell mode of the patch-clamp technique. HEK-293 cells stably expressing hKv11.1 (hERG) under G418 selection were a generous gift from Craig January (University of Wisconsin, Madison). Cells were cultured in DMEM containing 10% fetal bovine serum, 2 mM glutamine, 1 mM sodium pyruvate, 100 U/mL penicillin, 100 μg/mL streptomycin, and […]. Before experiments, cells were cultured to 60-80% confluency and lifted using TrypLE and plated onto poly-L-lysine-coated coverslips. Patch pipettes were pulled from soda lime glass (micro-hematocrit tubes) and had resistances of 2-4 MO. For the external solution, normal sodium Ringer was used (160 mM NaCl, 4.5 mM KCl, 2 mM CaCl2, 1 mM MgCl2, 10 mM HEPES, pH 7.4 and 290-310 mOsm). The internal solution used was potassium fluoride with ATP (160 mM KF, 2 mM MgCl2, 10 mM EGTA, 10 mM HEPES, 4 mM NaATP, pH=7.2 and 300-320 mOsm). A 2-step pulse (applied every 10 sec) from −80 mV first to 40 mV for 2 sec and then to −60 mV for 4 sec, was used to elicit hERG currents. The percent reduction of tail current amplitude by the drugs was determined and data are shown as mean+/−SD. For all experiments, solutions of the drugs were prepared fresh from 10 mM stock solutions in DMSO. […]

5-HT1A = biological target: T3, 5-HT1A (Homo sapiens, UniProt P08908); assay: 5-HT1A functional assay (Gi/o-mediated cAMP inhibition); type: cell-based
T3 construct: expressed in transfected cells; host or cells: HEKT cells (GloSensor cAMP assay)
T3 sequence (P08908 1-422): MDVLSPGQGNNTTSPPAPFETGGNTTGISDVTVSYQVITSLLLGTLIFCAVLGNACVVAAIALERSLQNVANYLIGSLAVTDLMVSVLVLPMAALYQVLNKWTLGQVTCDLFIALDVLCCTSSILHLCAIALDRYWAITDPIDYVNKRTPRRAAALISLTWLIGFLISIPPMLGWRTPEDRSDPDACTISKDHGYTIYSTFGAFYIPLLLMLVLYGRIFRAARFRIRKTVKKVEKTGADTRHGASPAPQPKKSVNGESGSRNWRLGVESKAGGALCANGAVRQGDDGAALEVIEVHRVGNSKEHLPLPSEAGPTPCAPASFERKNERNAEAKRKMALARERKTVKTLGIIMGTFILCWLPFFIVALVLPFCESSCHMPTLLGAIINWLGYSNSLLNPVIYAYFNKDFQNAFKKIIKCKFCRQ
Protocol: as §1

zebrafish = assay: Zebrafish developmental toxicity assay; type: in vivo; conditions: 100 μM; 2 and 5 dpf
[3] = Solubility in 0.9% saline; conditions: saline or isotonic
larval zebrafish [4] = assay: Heart rate and arrhythmia in immobilized larval zebrafish
mouse 5-HT2A receptors = mouse 5-HT2A receptors (Mus musculus, UniProt P35363); assay: 5-HT2A Gq-mediated calcium flux functional assay (mouse); type: cell-based
Sequence of mouse 5-HT2A receptors (P35363 whole entry): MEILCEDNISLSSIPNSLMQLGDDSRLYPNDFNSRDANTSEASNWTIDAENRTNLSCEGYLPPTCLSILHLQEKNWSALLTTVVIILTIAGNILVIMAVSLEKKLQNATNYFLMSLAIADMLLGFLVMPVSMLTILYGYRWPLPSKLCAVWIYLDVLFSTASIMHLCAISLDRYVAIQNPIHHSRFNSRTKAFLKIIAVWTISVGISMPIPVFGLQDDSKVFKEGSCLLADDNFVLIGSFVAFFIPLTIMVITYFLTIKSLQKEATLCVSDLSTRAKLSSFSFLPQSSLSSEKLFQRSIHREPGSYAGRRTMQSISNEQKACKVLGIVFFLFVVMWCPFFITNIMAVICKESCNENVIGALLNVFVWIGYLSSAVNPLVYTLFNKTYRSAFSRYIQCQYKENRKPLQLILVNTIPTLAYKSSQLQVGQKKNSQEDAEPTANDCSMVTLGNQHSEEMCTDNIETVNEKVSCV
Protocol: as §1

larval zebrafish [5] = assay: Larval zebrafish movement activity during a battery of light and acoustic stimuli
Excerpt: Stimuli applied over time are indicated under the heatmaps. Colors indicate bright LED light of respective colors, black traces represent the waveforms of acoustic stimuli, and gray vertical lines indicate physical tapping as secondary acoustic stimuli.
Response is […] proportional to classification accuracy; 0-20% indicates no ability and 100% indicates perfect classification. […] The solid line denotes the median and the shading denotes a 95th percentile confidence interval calculated by bootstrap. N=8 wells/condition (64 animals/condition).

[6] = system: rat embryonic cortical neurons; assay: Dendritogenesis (Sholl analysis) in cultured cortical neurons; type: cell-based; conditions: 1 h treatment followed by 71 h growth; compared to vehicle (VEH)
Protocol: Embryonic rat cortical neurons were treated for a short period of time (1 h) followed by a suitable growth period (71 h) to measure the psychoplastogenic effects of the compounds described herein. […] Therefore, the effects of ibogalogs 8-17 on dendritic growth was assessed.
Dendritogenesis Experiments. For the dendritogenesis experiments conducted using cultured cortical neurons, timed pregnant Sprague Dawley rats were obtained from Charles River Laboratories (Wilmington, MA). Full culturing, staining, and analysis details were performed as previously described. (Dunlap, L. et al., 2019)

C57/BL6J mice = assay: Forced swim test (FST); type: in vivo, mouse; conditions: 24 h after drug administration; TBG 50 mg/kg, ketamine 3 mg/kg i.p.
Protocol: Forced Swim Test (FST). Male C57/BL6J mice (9-10 weeks old at time of experiment, n=10 per condition) were obtained from the Jackson Lab and housed 4-5 mice/cage in a UCD vivarium following an IACUC approved protocol. After 1 week in the vivarium each mouse was handled for approximately 1 minute by a experimenter for 3 consecutive days leading up to the first FST. All experiments were carried out by the same experimenter who performed handling. During the FST, mice underwent a 6 min swim session in a clear Plexiglas cylinder 40 cm tall, 20 cm in diameter, and filled with 30 cm of 24±1° C. water. Fresh water was used for every mouse. After handling and habituation to the experimenter, drug-naïve mice first underwent a pretest swim to more reliably induce a depressive phenotype in the subsequent FST sessions. Immobility scores for all mice were determined after the pre-test and mice were randomly assigned to treatment groups to generate groups with similar average immobility scores to be used for the following two FST sessions. […] Experiments were video-recorded and manually scored offline. Immobility time—defined as passive floating or remaining motionless with no activity other than that needed to keep the mouse's head above water—was scored for the last 4 min of the 6 min trial.

Sequence of human 5-HT2A receptors (P28223 whole entry, canonical isoform): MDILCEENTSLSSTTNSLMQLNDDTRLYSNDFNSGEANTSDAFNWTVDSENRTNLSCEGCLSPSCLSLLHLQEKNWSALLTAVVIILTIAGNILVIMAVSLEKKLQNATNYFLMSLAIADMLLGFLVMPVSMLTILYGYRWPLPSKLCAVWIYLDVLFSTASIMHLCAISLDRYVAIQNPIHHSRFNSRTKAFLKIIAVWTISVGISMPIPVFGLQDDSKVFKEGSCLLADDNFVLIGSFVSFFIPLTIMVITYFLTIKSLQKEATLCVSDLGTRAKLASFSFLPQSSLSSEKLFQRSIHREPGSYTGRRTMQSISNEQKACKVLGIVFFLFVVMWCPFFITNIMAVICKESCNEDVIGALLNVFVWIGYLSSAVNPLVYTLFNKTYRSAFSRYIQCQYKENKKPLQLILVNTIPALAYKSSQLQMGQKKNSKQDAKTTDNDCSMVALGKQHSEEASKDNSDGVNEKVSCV

Row | Structure (SMILES) | agonist activity at human 5-HT2A receptors (human 5-HT2A receptors) | hallucinogenic potential (head-twitch response) (C57BL/6J mice) | opioid agonist activity [1] | activity mode at 5-HT2B receptors (5-HT2B receptors) | 5-HT2C agonist activity compared to 5-MeO-DMT (5-HT2C) | fold less potent than ibogaine at hERG [2] | 5-HT1A agonist activity compared to 5-MeO-DMT (5-HT1A) | malformations, mortality, non-viable fish (zebrafish) | solubility [3] [mg/mL] | heart rate (bradycardia) (larval zebrafish [4]) | likelihood of arrhythmias (ratio of atrium to ventricle BPM) (larval zebrafish [4]) | agonist activity at mouse 5-HT2A receptors (mouse 5-HT2A receptors) | behavioral phenotype at highest concentration versus lethal control (larval zebrafish [5]; 200 μM) | behavioral phenotype with increasing concentration versus vehicle and lethal control (eugenol, 100 μM) (larval zebrafish [5]; 1 h treatment, concentration-response) | machine learning classification of movement responses (larval zebrafish [5]; highest concentrations (200 μM)) | psychoplastogenic effect on dendritic growth (Sholl analysis) [6] | immobility in FST (C57/BL6J mice)
1 | COc1ccc2[nH]c3c(c2c1)CCN(C)CC3 [IBG] | potent agonist activity | significantly reduced hallucinogenic potential | weak or no opioid agonist activity | antagonists | weaker 5-HT1A and 5-HT2C agonist activity | approximately 10 fold | weaker 5-HT1A and 5-HT2C agonist activity | significantly fewer non-viable fish than ibogaine or noribogaine treatments | ≥ 40 | Neither IBG nor TBG induced these undesirable phenotypes; also recorded: do not induce bradycardia | Neither IBG nor TBG induced these undesirable phenotypes | potent agonist activity | did not produce this phenotype | do not produce movement responses in larval zebrafish similar to a lethal concentration of eugenol | more similar to vehicle controls than to ibogaine, noribogaine, or lethal controls | performed comparably to ibogaine | –
2 | CNC1(c2ccccc2Cl)CCCCC1=O (centres unmarked) [ketamine, reference compound] | – | – | – | – | – | – | – | – | – | – | – | – | – | – | – | – | significantly reduced immobility
